{"source": "patent US9084423B2", "about": "“Inhibition of bacterial biofilms with imidazole derivatives” (North Carolina State University, priority 2007, dated 2015)", "key": {"PDO300": {"system": "PDO300", "assay": "Planktonic growth (growth curves, colony counts), PDO300", "type": "cell-based, Pseudomonas aeruginosa", "conditions": "growth curves and/or colony counts"}, "[1]": {"system": "B. bronchiseptica biofilms (strain Rb50)", "assay": "Static biofilm inhibition assay (crystal violet), RB50", "type": "cell-based", "conditions": "Bordetella bronchiseptica, inhibition of biofilm formation, 24 hours", "procedure": "(§1) An overnight culture of the bacterial strain being screened against was subcultured at an OD600 of 0.1 into the media used (listed below with strain) and then pipetted into test tubes along with a predetermined concentration of our compound of interest. Test tubes were then poured into tilted Petri dishes and 100 μL of media, strain and compound were then transferred into 96-well PVC microtiter plates. These microtiter plates were then covered, wrapped in Saran™ Wrap polyethylene film (S.C. Johnson, Racine, Wis.) and allowed to incubate at 37° C. for 24 hours. After that time, the medium was discarded and the plates were thoroughly washed with water. The remaining biofilm that was formed during incubation was stained with 100 μL of a 0.1% crystal violet solution and allowed to incubate at room temperature for 30 minutes. After 30 minutes, the crystal violet was discarded and washed thoroughly again with water. […] The quantification of biofilm formation was accomplished by transferring 125 μL of the ethanol solution into a polystyrene microtiter dish, which was read by spectrophotometry (A540). After the background has been subtracted from each row, a percent inhibition can be calculated by dividing the amount of crystal violet in wells that contained compound by the amount of crystal violet in wells that contained bacteria only. […]"}, "P. aeruginosa PA14": {"system": "P. aeruginosa PA14", "assay": "Static biofilm inhibition assay (crystal violet), PA14", "type": "cell-based, Pseudomonas aeruginosa", "procedure": "(§2) An overnight culture of the bacterial strain being screened against was subcultured at an OD600 of 0.1 into the media used (listed below with strain) and then pipetted into test tubes along with a predetermined concentration of our compound of interest. Test tubes were then poured into tilted Petri dishes and 100 μL of media, strain and compound were then transferred into 96-well PVC microtiter plates. These microtiter plates were then covered, wrapped in Saran™ Wrap polyethylene film (S.C. Johnson, Racine, Wis.) and allowed to incubate at 37° C. for 24 hours. After that time, the medium was discarded and the plates were thoroughly washed with water. The remaining biofilm that was formed during incubation was stained with 100 μL of a 0.1% crystal violet solution and allowed to incubate at room temperature for 30 minutes. After 30 minutes, the crystal violet was discarded and washed thoroughly again with water. The remaining crystal violet that had stained the biofilm in the inside walls of the 96-well PVC plates was solubilized with 200 μL of 95% ethanol. The quantification of biofilm formation was accomplished by transferring 125 μL of the ethanol solution into a polystyrene microtiter dish, which was read by spectrophotometry (A540). After the background has been subtracted from each row, a percent inhibition can be calculated by dividing the amount of crystal violet in wells that contained compound by the amount of crystal violet in wells that contained bacteria only. Each concentration reported during the course of this study was repeated two to five times with each of those biofilm inhibition assays being done in 6 replicates each.\n(§3) An overnight culture of the wild type strain was subcultured at an OD600 of 0.10 into LBNS along with a predetermined concentration of the small molecule to be tested for biofilm inhibition. Samples were then aliquoted (100 μL) into the wells of a 96-well PVC microtiter plate. The microtiter dishes were covered and sealed before incubation under stationary conditions at 37° C. for 24 hours. After that time, the medium was discarded and the plates thoroughly washed with water. The wells were then inoculated with a 0.1% aqueous solution of crystal violet (100 μL) and allowed to stand at ambient temperature for 30 minutes. Following another thorough washing with water the remaining stain was solubilized with 200 μL of 95% ethanol. Biofilm inhibition was quantitated by measuring the OD540 for each well by transferring 125 μL of the ethanol solution into a fresh polystyrene microtiter dish for analysis.\n(§4) To examine each compound's ability to inhibit the formation of Pseudomonas aeruginosa biofilms, PAO1 and PA14 were employed as the target bacterial strains using a crystal violet reporter assay. G. A. O'Toole, R. Kolter, Mol. Microbiol. 1998, 28, 449. All compounds were initially screened at 500 μM for anti-biofilm activity.\nas §3, with “for 24 hours, After that” for “for 24 hours. After that”, “violet (100 pt) and allowed” for “violet (100 μL) and allowed”"}, "[2]": {"system": "planktonic P. aeruginosa PA14", "assay": "Planktonic growth (growth curves, colony counts), PA14", "type": "cell-based, Pseudomonas aeruginosa", "conditions": "growth curves and/or colony counts, presence vs absence of compound, at IC50 or as stated"}, "[3]": {"system": "planktonic P. aeruginosa PAO1", "assay": "Planktonic growth (growth curves, colony counts), PAO1", "type": "cell-based, Pseudomonas aeruginosa", "conditions": "growth curves and/or colony counts, presence vs absence of compound, at IC50 or as stated", "source_text": "To answer the question of whether the compounds were antibiotics or true inhibitors of biofilm formation, we tested the ability of both compounds to inhibit growth of planktonic P. aeruginosa. Growth was quantitated by measuring optical density at 600 nm. […]"}, "[4]": {"system": "P. aeruginosa strain PAO1", "assay": "Static biofilm inhibition assay (crystal violet), PAO1", "type": "cell-based, Pseudomonas aeruginosa", "procedure": "Each compound was assayed for the ability to inhibit the formation of P. aeruginosa biofilms. […] We employed a standard crystal violet reporter assay to assess for the formation of biofilms. Briefly, P. aeruginosa strain PAO1 was allowed to form biofilms in a multi-well plate in the absence or presence of our compounds. Planktonic (or free growing) bacteria were then removed, wells washed vigorously, and crystal violet added. Crystal violet stains the remaining bacteria which, following ethanol solubilization, can be quantitated by spectrophotometry (A540).\nas §2, §3, §4\nAn overnight culture of the wild type strain was subcultured at an OD600 of 0.10 into LBNS along with a predetermined concentration of the small molecule to be tested for biofilm inhibition. Samples were then aliquoted (100 μL) into the wells of a 96-well PVC microtiter plate. The microtiter dishes were covered and sealed before incubation under stationary conditions at 37° C. for 24 hours, After that time, the medium was discarded and the plates thoroughly washed with water. […]"}, "A. baumannii biofilms": {"system": "A. baumannii biofilms", "assay": "Biofilm dispersion, A. baumannii", "type": "cell-based, Acinetobacter baumannii", "conditions": "range of concentrations, FIG. 21", "procedure": "Finally, each of the TAGE derivatives were assayed for their ability to disperse pre-formed biofilms. […] While not wishing to be bound by any particular theory, it is hypothesized that the failure of these derivatives to effectively disperse biofilms, in contrast to TAGE, might be due to impeded diffusion through the biofilm matrix.\n(§5) From a clinical perspective, the ability to disperse an established biofilm can be an important consideration, because a physician is typically faced with treating an established or chronic biofilm infection. DHS was assessed for its ability to disperse existing biofilms of P. aeruginosa, A. baumannii, and B. bronchiseptica. Each bacterial strain was allowed to form biofilms for 24 hours in the absence of compound. At the end of 24 hours, the media and planktonic bacteria were removed and the remaining biofilm was treated either with media alone or media containing DHS."}, "[5]": {"system": "PDO300, mucoid strain of P. aeruginosa", "assay": "Static biofilm inhibition assay (crystal violet), PDO300", "type": "cell-based", "conditions": "Pseudomonas aeruginosa, 24 h, read-out: IC50 against PDO300", "experimental": "PDO300 was employed to assay if TAGE would inhibit the formation of mucoid biofilms. PDO300 is a well-characterized mucoid strain of P. aeruginosa that is genotypically identical to PAO1 except for the mucA mutation that converts the bacterium to the mucoid phenotype (Mathee et al., Microbiology, 1999, 145, 1349), PDO300 biofilms were allowed to develop in a 96-well plate in the absence or presence of TAGE. After 24 hours, the media and planktonic bacteria were removed, the wells were washed vigorously, and crystal violet was added. Crystal violet stains the bacterial biofilm that forms on the inside wall of the well at the air/liquid interface, which, following ethanol solubilization, can be quantitated by spectrophotometry (A540) (O'Toole et al., Mol. Microbiol., 1998, 30, 295).\nAn overnight culture of the bacterial strain being screened against was subcultured at an OD600 of 0.1 into the media used (listed below with strain) and then pipetted into test tubes along with a predetermined concentration of our compound of interest. Test tubes were then poured into tilted Petri dishes and 100 μL of media, strain and compound were then transferred into 96-well PVC microtiter plates. […] The quantification of biofilm formation was accomplished by transferring 125 μL of the ethanol solution into a polystyrene microtiter dish, which was read by spectrophotometry (A540). […]"}, "[6]": {"system": "existing biofilms of P. aeruginosa", "assay": "Biofilm dispersion, P. aeruginosa (Example 6)", "type": "cell-based, Pseudomonas aeruginosa", "conditions": "range of concentrations, FIG. 21", "procedure": "as §5"}, "[7]": {"system": "Acinetobacter Baumannii (ATCC 19606)", "assay": "Static biofilm inhibition assay (crystal violet), A. baumannii", "type": "cell-based", "conditions": "ATCC19606, inhibition of biofilm formation, 24 hours, read-out: IC50 value for inhibition against A. baumannii", "procedure": "as §1"}, "[8]": {"system": "existing biofilms of B. bronchiseptica", "assay": "Biofilm dispersion, B. bronchiseptica", "type": "cell-based, Bordetella bronchiseptica", "conditions": "range of concentrations, FIG. 21", "procedure": "as §5"}, "A. baumannii": {"system": "A. baumannii", "assay": "Planktonic growth (growth curves, colony counts), A. baumannii", "type": "cell-based, Acinetobacter baumannii", "conditions": "growth curves and/or colony counts", "procedure": "Screens of the three compounds were performed against A. baumannii and B. bronchiseptica."}, "[9]": {"conditions": "listed as DHS 23, hydrochloride"}, "[10]": {"conditions": "listed as DHS (7), hydrochloride"}}, "data": [{"smiles": "Cl.Cn1c(C(=O)NCCCc2c[nH]c(N)n2)cc(Br)c1Br", "note": "[Compound 23, 4,5-dibromo-1-methyl-pyrrole-2-carboxylic acid [3-(2-amino-1H-imidazol-4-yl)-propyl]-amide hydrochloride]", "values": [{"measurement": "bactericidal activity against PDO300 (in words)", "setting": "PDO300", "value": "lacked significant bactericidal activity"}, {"measurement": "IC50", "setting": "[1]", "value": 238, "unit": "µM"}, {"measurement": "% Biofilm Inhibition at 500 μM vs PA14", "setting": "P. aeruginosa PA14; 500 μM, hydrochloride", "value": ">95", "unit": "%"}, {"measurement": "inhibition at 500 µM", "setting": "P. aeruginosa PA14; Pseudomonas aeruginosa, PA14, 24 h", "value": "> 95", "unit": "%"}, {"measurement": "IC50", "setting": "P. aeruginosa PA14; Pseudomonas aeruginosa, PA14, inhibition of biofilm formation, crystal violet, 24 hours", "value": "111 ± 8", "unit": "µM"}, {"measurement": "microbicidal effect on PA14 planktonic growth (in words)", "setting": "[2]; [9]", "value": "no reduction"}, {"measurement": "microbicidal effect on PA14 planktonic growth (in words)", "setting": "[2]; [10]", "value": "not due to a bactericidal effect"}, {"measurement": "microbicidal effect on PAO1 planktonic growth (in words)", "setting": "[3]; [9]", "value": "no reduction"}, {"measurement": "microbicidal effect on PAO1 planktonic growth (in words)", "setting": "[3]; [10]", "value": "not due to a bactericidal effect"}, {"measurement": "% Biofilm Inhibition at 500 μM vs PAO1", "setting": "[4]; 500 μM, hydrochloride", "value": ">95", "unit": "%"}, {"measurement": "inhibition at 500 µM", "setting": "[4]; Pseudomonas aeruginosa, PAO1", "value": "> 95", "unit": "%"}, {"measurement": "IC50", "setting": "[4]; Pseudomonas aeruginosa, PAO1, inhibition of biofilm formation, crystal violet, 24 hours", "value": "51 ± 9", "unit": "µM"}, {"measurement": "fold more active than both TAGE and CAGE", "setting": "[4]; from IC50 values against PAO1 and PA14", "value": "approximately 2 fold"}, {"measurement": "dispersion of existing A. baumannii biofilms (in words)", "setting": "A. baumannii biofilms", "value": "able to successfully disperse"}, {"measurement": "IC50", "setting": "[5]", "value": 115, "unit": "µM"}, {"measurement": "dispersion of existing P. aeruginosa biofilms (in words)", "setting": "[6]", "value": "able to successfully disperse"}, {"measurement": "IC50", "setting": "[7]", "value": 110, "unit": "µM"}, {"measurement": "dispersion of existing B. bronchiseptica biofilms (in words)", "setting": "[8]", "value": "able to successfully disperse"}, {"measurement": "microbicidal effect on A. baumannii planktonic growth (in words)", "setting": "A. baumannii", "value": "no microbicidal effects"}]}]}
